Data set [1] has as its system tobacco cutworm. Put plainly: Test 1: Effect on Tobacco Cutworm (leaf immersion), mortality after 24 hours. Format: in vivo. The following applies: second-instar larvae, 25° C. On the procedure:
(§1) To a mixture of 20 parts of the compound of the present invention and 20 parts of Sorpol SM-200 (registered tradename for the product supplied by Toho Chemical Industrial Co., Ltd.) was added 60 parts of xylol, and the mixture was suffciently blended. The obtained emulsifiable concentrate was diluted at a predetermined concentration with distilled water, and the obtained dilution was used.
An emulsifiable concentrate of a test compound prepared according to the method described in Formulation Example 1 was diluted to a concentration of 100 or 20 ppm. Sweet-potato leaves were immersed in the dilution for 10 seconds, air-dried and placed in a plastic cup having a diameter of 10 cm. Then second-instar larvae of tobacco cutworm were set free in the cup. The cup was allowed to stand still in a thermostat chamber maintained at 25° C. After 24 hours, the numbers of killed and living larvae were counted and the mortality was calculated. The obtained result was expressed by an average value obtained from the mortality calculated in three test cups.

Data set [2] relates to sensitive green rice leafhopper (collected at Chigasaki). Put plainly: whole plant or invertebrate. The format is in vivo. The following applies: Nephotettix cincticeps, sensitive female adults, 24 hours, read-out: Mortality (%), Green Rice Leafhopper Collected at Chigasaki. The method in brief: (§2)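 Ten adult females per pot, either resistant (Nakagawara) or sensitive (Chigasaki), were caged on air-dried rice seedlings (2–3 leaves) sprayed at 3 ml/pot with 100 or 20 ppm of an emulsifiable concentrate dilution. Dead and living insects were counted after 24 hours; mortality is the mean of three pots.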

The test system of a further data set is diamond back moth. Put plainly: Test 4: Effect on Diamond Back Moth. The following applies: Plutella, third-instar larvae, 24 hours, read-out: Mortality (%). The format is in vivo. On the procedure:
as §1
Cabbage leaves were spread in a plastic cup, and 10 third-instar larvae of diamond back moth were set free in the cup.
A chemical dilution having a concentration of 100 or 20 ppm, prepared in the same manner as described in Test 1, was applied from an applicator at a rate of 3 ml per cup.
After scattering of the chemical dilution, the cup was covered, and after 24 hours, the numbers of killed and living larvae were counted and the mortality was calculated. The test was made on three cups and the average value was calculated.

The nature of another data set: Test 8: Fish Toxicity. The format is in vivo. The following applies: carp, water; concentration at which 1/2 of the test fishes were killed within 48 hours; read-out: Fish Toxicity, TLm48. How it is done:
A water tank having a width of 60 cm, a length of 30 cm and a height of 40 cm was filled with water, and 10 yearling carps having a body length of about 5 cm were set free in the tank and adapted to the environment in the tank. A test compound was applied so that the concentration in water was 10, 1 or 0.1 ppm. After 48 hours, the numbers of killed and living carps were counted and the influences on the fishes were examined.

The subject of data set [3] is resistant green rice leafhopper (collected at Nakagawara). Put plainly: Test 3: Effect on Resistant Green Rice Leafhopper (collected at Nakagawara). The format is in vivo, Nephotettix cincticeps Uhler (Green rice leafhopper). The following applies: Nephotettix cincticeps, 24 h, read-out: Mortality (%), Green Rice Leafhopper Collected at Nakagawara. The method in brief:
as §2

Data set [4] can be described thus: Test 9: Toxicity Test (acute oral toxicity, mice). The following applies: mouse, in vivo, po. How it is done: A predetermined amount of a solution or suspension of a test compound in corn oil was orally administered to male mice having a body weight of 19 to 23 g (0.2 ml per 10 g of the body weight). After 7 days, the number of killed mice was counted and the influences on the mice were examined.

The test system of data set [5] is tobacco cutworm. Put plainly: Test 2: Tobacco Cutworm Larva Dipping Test, mortality after 24 hours. The following applies: 24 hours. The format is in vivo. On the procedure:
as §1
A dilution having a chemical concentration of 100 or 20 ppm was prepared in the same manner as described in Test 1.
Second-instar and fifth-instar larvae of tobacco cutworm were dipped in the dilution for 5 seconds, and the excessive dilution was removed by a filter paper. Then, the larvae were set free in a plastic cup and an artificial diet was supplied thereto. The cup was allowed to stand still in a thermostat chamber maintained at 25° C. After 24 hours, the numbers of the killed and living larvae were counted and the mortality was calculated. The test was made on three cups and the result was expressed by an average value.

Another data set relates to German cockroach. Put plainly: Test 7: Effect on German Cockroach. The following applies: Blattella germanica, male adults, agonized and killed after 24 hours, read-out: Mortality (%). The format is in vivo. How it is done: as §1
The bottom face of a high Petri dish having a diameter of 9 cm and a height of 9 cm was treated with 50 or 10 mg/m^2 of a test compound and the dish was air-dried. In order to prevent the adults from escaping from the dish, the inner wall of the dish was treated with butter. Then, 10 male adults of German cockroach were set free in each dish, and the dish was placed in a thermostat chamber maintained at 25° C. After 24 hours, the number of agonized and killed adults was counted. The test was made on two dishes and the average value was calculated.

[6] abbreviates: fifth-instar larvae, read-out: Motality (%), Fifth-Instar Larvae.
Where [7] appears, read: second-instar larvae, read-out: Motality (%), Second-Instar Larvae.

Molecules are shown by their SMILES.

The results in this text go back to US4570005A, “Process for the preparation of 2-arylpropyl ether or thioether derivatives” (priority 1980, dated 1986).

What is called LD50 is the dose at which mortality reaches 50%.

With `CC(C)(CSCc1cccc(Oc2ccc(Br)cc2)c1)c1ccc(Cl)cc1` [Compound 37], the mortality at 20 ppm with tobacco cutworm [1] came to 100%; in data set [2], 50%; with diamond back moth, 100%; in data set [3], 70%. Moreover, the mortality at 100 ppm (in the data set with tobacco cutworm [1]; in data set [2]; in the data set with diamond back moth; in data set [3]) was 100% each time. Also, the LC50 at 48 h in “Test 8: Fish Toxicity” was > 10 µg/mL. In data set [4], the LD50 at 168 h is > 500 mg/kg.

With `COc1ccc(Oc2cccc(COCC(C)(C)c3ccccc3)c2)cc1` [Compound 13, 3-(4-methoxyphenoxy)benzyl 2-phenyl-2-methylpropyl ether], the mortality at 20 ppm amounted to 50% in data set [2] and 70% in data set [3]. The mortality at 100 ppm in data set [2] and in data set [3] was 100% in each case. Besides, the LC50 at 48 h in the data set “Test 8: Fish Toxicity” was > 10 µg/mL. For the same molecule, the LD50 at 168 h in data set [4] was > 500 mg/kg.

Turning to `CC(C)(COCc1cccc(Oc2ccc(Br)cc2)c1)c1ccc(OC(F)F)cc1` [Compound 30, 3-(4-Bromophenoxy)benzyl 2-(4-difluoromethoxyphenyl)-2-methylpropyl ether], the mortality at 20 ppm was 80% with tobacco cutworm [1], 100% in data set [2], 70% with diamond back moth and 100% in data set [3]. The mortality at 100 ppm (in the data set on tobacco cutworm [1]; in data set [2]; in the data set with diamond back moth; in data set [3]) was 100% throughout. The LC50 at 48 h in the data set “Test 8: Fish Toxicity” was > 1 µg/mL. Besides, in data set [4], the LD50 at 168 h is > 500 mg/kg.

With `CC(C)(COCc1cccc(Oc2ccccc2)c1)c1ccc(Br)cc1` [Compound 107, 3-Phenoxybenzyl 2-(4-bromophenyl)-2-methylpropyl ether], in data set [2], the mortality at 20 ppm is 100% and the mortality at 100 ppm came to 100%. Also, the LC50 at 48 h in the data set “Test 8: Fish Toxicity” was > 1 µg/mL. In data set [3], the mortality at 20 ppm is 100% and the mortality at 100 ppm is 100%. The LD50 at 168 h in data set [4] was > 500 mg/kg.

In the case of `CCC(C)(COCc1cccc(Oc2ccc(F)cc2)c1)c1ccc(F)cc1` (stereo not shown) [Compound 2, 3-(4-fluorophenoxy)benzyl 2-(4-fluorophenyl)-2-methylbutyl ether], the mortality at 20 ppm came to 90% in the data set with tobacco cutworm [1], 80% in data set [2], 100% with diamond back moth and 95% in data set [3]. The mortality at 100 ppm (with tobacco cutworm [1]; in data set [2]; with diamond back moth; in data set [3]) was 100% in each case. For the same molecule, the LC50 at 48 h in “Test 8: Fish Toxicity” is > 1 µg/mL. Moreover, the LD50 at 168 h in data set [4] is > 500 mg/kg.

Take `C=COc1ccc(C(C)(C)COCc2cccc(Oc3ccccc3)c2)cc1` [Compound 67, 3-Phenoxybenzyl 2-(4-vinyloxyphenyl)-2-methylpropyl ether]: the mortality at 20 ppm worked out at 90% in the data set with tobacco cutworm [1], 100% in the data set with tobacco cutworm [5] (setting [6]), 100% in the data set with tobacco cutworm [5] (setting [7]) and 90% in the data set on diamond back moth. For the same molecule, the mortality at 100 ppm in the data set with tobacco cutworm [1], in the data set on tobacco cutworm [5] (setting [6]), in the data set on tobacco cutworm [5] (setting [7]) and with diamond back moth was 100% in each case. Further, in the data set on German cockroach (10 mg/m^2), the mortality at 10 mg/m2 amounted to 100%. Also, the mortality at 50 mg/m2 in the data set on German cockroach (50 mg/m^2) is 100%. Also, the LD50 at 168 h in data set [4] is > 500 mg/kg.

As for `CC(C)(COCc1cccc(Oc2ccccc2)c1)c1ccc(F)cc1` [Compound 51, 3-Phenoxybenzyl 2-(4-fluorophenyl)-2-methylpropyl ether], the mortality at 20 ppm (in the data set with tobacco cutworm [1]; in data set [2]; in data set [3]) was 100% throughout. In addition, the mortality at 100 ppm (with tobacco cutworm [1]; in data set [2]; in data set [3]) was 100% in each case. The LC50 at 48 h in “Test 8: Fish Toxicity” is > 1 µg/mL. For the same molecule, the LD50 at 168 h in data set [4] is > 500 mg/kg.

In the data set on tobacco cutworm [1], `CC(C)(COCc1cccc(Oc2ccc(F)cc2)c1)c1cccc(C(F)(F)F)c1` [Compound 23, 3-(4-Fluorophenoxy)benzyl 2-(3-trifluoromethylphenyl)-2-methylpropyl ether] had a mortality at 20 ppm of 80% and a mortality at 100 ppm of 100%. In addition, the LC50 at 48 h in the data set “Test 8: Fish Toxicity” was > 1 µg/mL. The 50% lethal dose (LD50) at 168 h in data set [4] was > 500 mg/kg.

For the molecule `Cc1ccc(Oc2cccc(COCC(C)(C)c3ccc(Cl)cc3)c2)cc1` [Compound 19, 3-(4-methylphenoxy)benzyl 2-(4-chlorophenyl)-2-methylpropyl ether], in data set [2], the mortality at 20 ppm came to 90% and the mortality at 100 ppm turned out to be 100%. Moreover, in “Test 8: Fish Toxicity”, the LC50 at 48 h is > 10 µg/mL. For the same molecule, in data set [3], the mortality at 20 ppm stood at 100% and the mortality at 100 ppm was 100%. The LD50 at 168 h in data set [4] is > 500 mg/kg.

For the molecule `CC(C)(COCc1cccc(Oc2ccc(Br)cc2)c1)c1ccc(Cl)c(Cl)c1` [Compound 21, 3-(4-Bromophenoxy)benzyl 2-(3,4-dichlorophenyl)-2-methylpropyl ether], the mortality at 20 ppm in data set [2] stood at 60%; in data set [3], 85%. For the same molecule, the mortality at 100 ppm in data set [2] and in data set [3] was 100% throughout. Further, the LC50 at 48 h in the data set “Test 8: Fish Toxicity” is > 10 µg/mL. For the same molecule, in data set [4], the LD50 at 168 h was > 500 mg/kg.

With `CC1(C)C(C=C(Cl)Cl)C1C(=O)OCc1cccc(Oc2ccccc2)c1` (stereo not shown) [(i), Permethrin, reference compound], the LC50 at 48 h in “Test 8: Fish Toxicity” is < 0.005 µg/mL.

For the molecule `CC(C)C(C(=O)OC(C#N)c1cccc(Oc2ccccc2)c1)c1ccc(Cl)cc1` (stereo not shown) [Comparative Compound (a), reference compound], the LC50 at 48 h in “Test 8: Fish Toxicity” was < 0.005 µg/mL. The LD50 at 168 h in data set [4] is 260 mg/kg.

On to `CC(C)(COCc1cccc(Oc2ccc(Br)cc2)c1)c1ccc(Cl)cc1` [Compound 4, 3-(4-Bromophenoxy)benzyl 2-(4-chlorophenyl)-2-methylpropyl ether], for which the mortality at 20 ppm in the data set with tobacco cutworm [1] turned out to be 95%; in data set [2], 50%; in the data set on tobacco cutworm [5] (setting [6]), 70%; with tobacco cutworm [5] (setting [7]), 90%; in the data set with diamond back moth it was 100%; in data set [3] it was 70%. The mortality at 100 ppm in the data set on tobacco cutworm [1] was 100%; in data set [2] it was 100%; in the data set on tobacco cutworm [5] (setting [6]), 80%; in the data set with tobacco cutworm [5] (setting [7]), 90%; in the data set on diamond back moth, 100%; in data set [3], 100%. Moreover, the LC50 at 48 h in “Test 8: Fish Toxicity” is > 10 µg/mL. Besides, the LD50 at 168 h in data set [4] is > 500 mg/kg.
